# Measurements taken from US8022218B2, “4-phenyl-5-oxo-1,4,5,6,7,8-hexahydroquinoline derivatives for the treatment of infertility” (N.V. Organon, priority 2005, dated 2011).
# Target: T1, human FSH receptor (Homo sapiens, UniProt P23945)
# T1 construct: expressed in transfected cells; host or cells: Chinese Hamster Ovary (CHO) cells
# T1 sequence (P23945 18-695): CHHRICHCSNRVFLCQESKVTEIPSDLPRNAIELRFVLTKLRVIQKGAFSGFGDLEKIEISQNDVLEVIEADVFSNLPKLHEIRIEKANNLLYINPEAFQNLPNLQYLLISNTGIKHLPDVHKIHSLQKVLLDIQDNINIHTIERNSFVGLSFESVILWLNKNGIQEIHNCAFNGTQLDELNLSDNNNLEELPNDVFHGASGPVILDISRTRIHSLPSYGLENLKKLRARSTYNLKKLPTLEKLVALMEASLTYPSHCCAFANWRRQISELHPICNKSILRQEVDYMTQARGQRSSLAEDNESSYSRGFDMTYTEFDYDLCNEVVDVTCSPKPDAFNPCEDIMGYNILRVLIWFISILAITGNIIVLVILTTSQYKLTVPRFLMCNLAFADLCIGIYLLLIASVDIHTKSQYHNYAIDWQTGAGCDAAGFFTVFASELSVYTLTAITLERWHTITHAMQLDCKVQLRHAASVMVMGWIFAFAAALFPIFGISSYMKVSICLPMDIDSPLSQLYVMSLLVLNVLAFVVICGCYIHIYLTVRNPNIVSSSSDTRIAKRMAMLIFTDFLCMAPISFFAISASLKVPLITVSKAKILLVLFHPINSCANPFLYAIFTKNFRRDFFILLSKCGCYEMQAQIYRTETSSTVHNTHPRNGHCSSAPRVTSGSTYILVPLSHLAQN
# Test: Agonistic activity at the human FSH receptor expressed in CHO cells (CRE-luciferase reporter)
# Assay type: cell-based
# Conditions: CHO cells stably transfected with human FSH receptor and CRE/luciferase reporter; tested 0.1 nM to 10 μM; read-out: EC50 (concentration of test compound causing half-maximal (50%) luciferase stimulation)
# Experimental: Agonistic Activity of Compounds at the Human FSH Receptor Expressed in CHO Cells
# Agonist activity of the compounds at the human FSH receptor was tested in Chinese Hamster Ovary (CHO) cells stably transfected with the human FSH receptor and cotransfected with a cAMP responsive element (CRE)/promotor directing the expression of a firefly luciferase reporter gene. Binding of the compound to the Gscoupled FSH receptor will result in an increase of cAMP, which in turn will induce an increased transactivation of the luciferase reporter construct. The luciferase activity was quantified using a luminescence counter. The compounds were tested in the concentration range of 0.1 nM to 10 μM. This assay was used to determine the EC50 (concentration of test compound causing half-maximal (50%) luciferase stimulation) and efficacy of the compounds compared to recombinant human FSH. For this, the software program XLfit (Excel version 2.0, built 30, ID Business Solutions Limited) was used.
row,EC50,SMILES
1,< 10 nM,"CCCC1CC(=O)C2=C(C1)NC(C)=C(C#N)C2c1cc(Br)c(OCc2cccc(NC(=O)CN3CCN(CCO)CC3)c2)c(OCC)c1 (stereo not drawn) [Example 5, N-{3-[2-Bromo-4-(3-cyano-2-methyl-5-oxo-7-propyl-1,4,5,6,7,8-hexahydro-quinolin-4-yl)-6-ethoxy-phenoxymethyl]-phenyl}-2-[4-(2-hydroxy-ethyl)-piperazin-1-yl]-acetamide]"
2,< 10 nM,"CCCC1CC(=O)C2=C(C1)NC(C)=C(C#N)C2c1cc(Br)c(OCc2cccc(C(=O)N3CC=CCC3)c2)c(OCC)c1 (stereo not drawn) [Example 7, 4-{3-Bromo-4-[3-(3,6-dihydro-2H-pyridine-1-carbonyl)-benzyloxy]-5-ethoxy-phenyl}-2-methyl-5-oxo-7-propyl-1,4,5,6,7,8-hexahydro-quinoline-3-carbonitrile]"
3,< 10 nM,"CCCC1CC(=O)C2=C(C1)NC(C)=C(C#N)C2c1cc(Br)c(OCc2cccc(OCC(=O)N(C)C)c2)c(OCC)c1 (stereo not drawn) [Example 15, 2-{3-[2-Bromo-4-(3-cyano-2-methyl-5-oxo-7-propyl-1,4,5,6,7,8-hexahydro-quinolin-4-yl)-6-ethoxy-phenoxymethyl]-phenoxy}-N,N-dimethyl-acetamide]"
4,< 10 nM,"CCCC1CC(=O)C2=C(C1)NC(C)=C(C#N)C2c1cc(Br)c(OCc2cccc(OCC(=O)N3CCOCC3)c2)c(OCC)c1 (stereo not drawn) [Example 17, 4-{3-Bromo-5-ethoxy-4-[3-(2-morpholin-4-yl-2-oxo-ethoxy)-benzyloxy]-phenyl}-2-methyl-5-oxo-7-propyl-1,4,5,6,7,8-hexahydro-quinoline-3-carbonitrile]"
5,< 10 nM,CCCC1CC(=O)C2=C(C1)NC(C)=C(C#N)C2c1cc(Br)c(OCc2ccccc2NC(=O)OC)c(OCC)c1 (stereo not drawn) [Example 25]
6,< 10 nM,"CCCC1CC(=O)C2=C(C1)NC(C)=C(C#N)C2c1cc(Br)c(OCc2cccc(NS(C)(=O)=O)c2)c(OCC)c1 (stereo not drawn) [Example 42, N-{3-[2-Bromo-4-(3-cyano-2-methyl-5-oxo-7-propyl-1,4,5,6,7,8-hexahydro-quinolin-4-yl)-6-ethoxy-phenoxymethyl]-phenyl}-methanesulfonamide]"
7,< 10 nM,"CCCC1CC(=O)C2=C(C1)NC(C)=C(C#N)C2c1cc(Br)c(OCc2ccc(C(=N)NC)cc2)c(OCC)c1 (stereo not drawn) [Example 54, 4-[2-Bromo-4-(3-cyano-2-methyl-5-oxo-7-propyl-1,4,5,6,7,8-hexahydro-quinolin-4-yl)-6-ethoxy-phenoxymethyl]-N-methyl-benzamidine]"

# More lines, now with the values behind:
row,SMILES,EC50
1,"CCCC1CC(=O)C2=C(C1)NC(C)=C(C#N)C2c1cc(Br)c(OCc2cccc(NC(=O)c3cc(OC)c(OC)c(OC)c3)c2)c(OCC)c1 (stereo not drawn) [Example 1, N-{3-[2-Bromo-4-(3-cyano-2-methyl-5-oxo-7-propyl-1,4,5,6,7,8-hexahydro-quinolin-4-yl)-6-ethoxy-phenoxymethyl]-phenyl}-3,4,5-trimethoxy-benzamide]",< 10 nM
2,"CCCC1CC(=O)C2=C(C1)NC(C)=C(C#N)C2c1cc(Br)c(OCc2cccc(NC(=O)CNCc3ccncc3)c2)c(OCC)c1 (stereo not drawn) [Example 3, N-{3-[2-Bromo-4-(3-cyano-2-methyl-5-oxo-7-propyl-1,4,5,6,7,8-hexahydro-quinolin-4-yl)-6-ethoxy-phenoxymethyl]-phenyl}-2-[(pyridin-4-ylmethyl)-amino]-acetamide]",< 10 nM
3,"CCCC1CC(=O)C2=C(C1)NC(C)=C(C#N)C2c1cc(Br)c(OCc2cccc(NC(=O)CCN(CCOC)CCOC)c2)c(OCC)c1 (stereo not drawn) [Example 11, 3-[Bis-(2-methoxy-ethyl)-amino]-N-{3-[2-bromo-4-(3-cyano-2-methyl-5-oxo-7-propyl-1,4,5,6,7,8-hexahydro-quinolin-4-yl)-6-ethoxy-phenoxymethyl]-phenyl}-propionamide]",< 10 nM
4,"CCCC1CC(=O)C2=C(C1)NC(C)=C(C#N)C2c1cc(Br)c(OCc2ccccc2NC(=O)c2ccco2)c(OCC)c1 (stereo not drawn) [Example 22, Furan-2-carboxylic acid {2-[2-bromo-4-(3-cyano-2-methyl-5-oxo-7-propyl-1,4,5,6,7,8-hexahydro-quinolin-4-yl)-6-ethoxy-phenoxymethyl]-phenyl}-amide]",< 10 nM
5,"C=CC(=O)Nc1ccccc1COc1c(Br)cc(C2C(C#N)=C(C)NC3=C2C(=O)CC(CCC)C3)cc1OCC (stereo not drawn) [Example 23, N-{2-[2-Bromo-4-(3-cyano-2-methyl-5-oxo-7-propyl-1,4,5,6,7,8-hexahydro-quinolin-4-yl)-6-ethoxy-phenoxymethyl]-phenyl}-acrylamide]",< 10 nM
6,"CCCC1CC(=O)C2=C(C1)NC(C)=C(C#N)C2c1cc(Br)c(OCc2ccccc2NC(=O)C2CC2)c(OCC)c1 (stereo not drawn) [Example 24, Cyclopropanecarboxylic acid {2-[2-bromo-4-(3-cyano-2-methyl-5-oxo-7-propyl-1,4,5,6,7,8-hexahydro-quinolin-4-yl)-6-ethoxy-phenoxymethyl]-phenyl}-amide]",< 10 nM
7,"CCCC1CC(=O)C2=C(C1)NC(C)=C(C#N)C2c1cc(Br)c(OCc2ccccc2NC(=O)NC)c(OCC)c1 (stereo not drawn) [Example 34, 1-{2-[2-Bromo-4-(3-cyano-2-methyl-5-oxo-7-propyl-1,4,5,6,7,8-hexahydro-quinolin-4-yl)-6-ethoxy-phenoxymethyl]-phenyl}-3-methyl-urea]",< 10 nM
8,"CCCC1CC(=O)C2=C(C1)NC(C)=C(C#N)C2c1cc(Br)c(OCc2cccnc2NC(=O)OC)c(OCC)c1 (stereo not drawn) [Example 38, {3-[2-Bromo-4-(3-cyano-2-methyl-5-oxo-7-propyl-1,4,5,6,7,8-hexahydro-quinolin-4-yl)-6-ethoxy-phenoxymethyl]-pyridin-2-yl}-carbamic acid methyl ester]",< 10 nM
9,"C=CCOC(=O)Nc1ccc(COc2c(Br)cc(C3C(C#N)=C(C)NC4=C3C(=O)CC(CCC)C4)cc2OCC)cc1 (stereo not drawn) [Example 50, {4-[2-Bromo-4-(3-cyano-2-methyl-5-oxo-7-propyl-1,4,5,6,7,8-hexahydro-quinolin-4-yl)-6-ethoxy-phenoxymethyl]-phenyl}-carbamic acid allyl ester]",< 10 nM
10,"CCCC1CC(=O)C2=C(C1)NC(C)=C(C#N)C2c1cc(Br)c(OCc2cccn2S(C)(=O)=O)c(OCC)c1 (stereo not drawn) [Example 51, 4-[3-Bromo-5-ethoxy-4-(1-methanesulfonyl-1H-pyrrol-2-ylmethoxy)-phenyl]-2-methyl-5-oxo-7-propyl-1,4,5,6,7,8-hexahydro-quinoline-3-carbonitrile]",< 10 nM
11,"CCCC1CC(=O)C2=C(C1)NC(C)=C(C#N)C2c1cc(Br)c(NCc2cccnc2)c(OCC)c1 (stereo not drawn) [Example 56, 4-{3-Bromo-5-ethoxy-4-[(pyridin-3-ylmethyl)-amino]-phenyl}-2-methyl-5-oxo-7-propyl-1,4,5,6,7,8-hexahydro-quinoline-3-carbonitrile]",< 10 nM
12,"CCCC1CC(=O)C2=C(C1)NC(C)=C(C#N)C2c1cc(Br)c(NCc2ccccc2NS(C)(=O)=O)c(OCC)c1 (stereo not drawn) [Example 58, N-(2-{[2-Bromo-4-(3-cyano-2-methyl-5-oxo-7-propyl-1,4,5,6,7,8-hexahydro-quinolin-4-yl)-6-ethoxy-phenylamino]-methyl}-phenyl)-methanesulfonamide]",< 10 nM
13,"CCCC1CC(=O)C2=C(C1)NC(C)=C(C#N)C2c1cc(Br)c(OCc2ccccc2NCC2CC2)c(OCC)c1 (stereo not drawn) [Example 62, 4-{3-Bromo-4-[2-(cyclopropylmethyl-amino)-benzyloxy]-5-ethoxy-phenyl}-2-methyl-5-oxo-7-propyl-1,4,5,6,7,8-hexahydro-quinoline-3-carbonitrile]",< 10 nM
14,"CCC[C@@H]1CC(=O)C2=C(C1)NC(C)=C(C#N)[C@H]2c1cc(Br)c(OCc2cc(F)c(F)cc2NS(C)(=O)=O)c(OCC)c1 [Example 72, N-{2-[2-Bromo-4-((4R,7S)-3-cyano-2-methyl-5-oxo-7-propyl-1,4,5,6,7,8-hexahydro-quinolin-4-yl)-6-ethoxy-phenoxymethyl]-4,5-difluoro-phenyl}-methanesulfonamide]",< 10 nM
